{
  "source": "patent US20100113602A1",
  "about": "“USE OF HISTONE DEACETYLASE INHIBITORS FOR THE TREATMENT OF CENTRAL NERVOUS SYSTEM METASTASES” (The United States of America,as represented by the …, priority 2007, published 2010)",
  "key": {"[1]": {"system": "MDA-MB-231-BR cells brain metastases", "assay": "Brain metastasis model, intracardiac MDA-MB-231-BR cells in nude mice (Example 5)", "assay_type": "in vivo, Balb/c nude mice", "design": "key to Mean Large Mets: mean no. of large metastases (>50 microns^2) per mouse; key to Mean Micromets: mean no. of metastases in 10 step sections of one hemisphere", "conditions": "for Mean Large Mets: large >50 microns^2", "protocol": "Cells are prepared as described in Example 2 with additional preparation as follows. The retroviral vector pLEGFP-C1 (BD Biosciences, San Jose, Calif.) is transfected into murine fibroblast PT67 packaging cells using Effectene reagent according to the manufacturer's protocol (Qiagen, Germantown, Md.). After 24 hours, enhanced green fluorescent protein (EGFP)-expressing cells are selected in the presence of 1 mg/mL G418 (Invitrogen, Carlsbad, Calif.), and colonies are expanded. Virus is harvested and filtered through a 0.45 um Millex-HA syringe-driven filter (Millipore, Billerica, Mass.) and 231-BR cells are infected with retrovirus for 6 hours. The following day, 231-BR cells are selected in the presence of 0.8 mg/mL G418, and EGFP expression in 95-99% of the cells is confirmed by fluorescent microscopy.\nAll animal experiments are conducted under an approved Animal Use Agreement with the NCI. Under isoflurane anesthesia, 20 female Balb/c nude mice (Charles River Laboratories, Frederick, Md.) 5-7 weeks old are inoculated with 500,000 (Experiment 1) or 100,000 (Experiment 2) MDA-MB-231-BR cells in 0.1 mL PBS in the left ventricle of the heart. Mice are monitored daily for signs of ill health. Three days after tumor cell inoculation mice are randomized to treatment groups and treatment is started. […] After 21 days of treatment, mice are euthanized under CO2 anesthesia and brains are excised for imaging. EGFP is detected in whole brains by the Maestro 420 In Vivo Spectral Imaging System (Cambridge Research and Instrumentation, Woburn, Mass.), using software (e.g., Nuance Technology, Burlington, Mass.) to distinguish or unmix images of fluorescence from multiple sources. After imaging, mouse brains are bisected along the sagittal plane and the right hemisphere of the brain is fixed in 4% paraformaldehyde for 24-48 hours at 4° C., then transferred to 20% sucrose overnight at 4° C. and frozen (for EGFP detection/histology). The left hemisphere is forallin-fixed and paraffin embedded for immunohistochemistry. Ten micron brain sections are serially cut and processed for either EGFP microscopy or histology. To detect EGFP, slides are dried at room temperature and 25 uL Vectashield HardSet Mounting Media with DAPI was added (Vector Laboratories, Burlingame, Calif.). Images are captured on a Zeiss Axioskop 2 microscope (Thornwood, N.Y.) using OpenLab software (Improvision, Lexington, Mass.). For staining with hematoxylin and eosin, a standard protocol is followed. Ten serial sections every 300 microns through the brain are analyzed using a 5× objective on a Zeiss microscope, containing an ocular grid with squares of 0.8 mm^2.\nEvery micro- or large (>50 microns^2) metastasis in each section is tabulated. Data are representative of two experiments conducted. Wilcoxon rank sum test is used to compare the number of total metastases and the number of large metastases in vehicle treated versus vorinostat treated mice. Tests can be performed using GraphPad InStat version 3.0 software. “Mean Micromets” in Tables 6 and 7 refer to the mean number of metastases counted in 10 step sections from one hemisphere of the brain. “Mean Large Mets” in Tables 6 and 7 refer to the size of metastases determined by a 16 mm^2 ocular grid. Large metastases are greater than 50 microns^2."}, "231-BR cells": {"system": "231-BR cells", "assay": "MTT proliferation / colonization assay of 231-BR cells", "assay_type": "cell-based, human", "protocol": "The prepared cells are plated at a density of 15,000 cells/well in a 96 well plate and incubated for 3 hours to permit attachment. Cells are then washed with PBS, and media containing either 0.1% or 1% FBS is added to the cells. […] After a 72-hour incubation, 0.5 mg/mL MTT (Sigma, St. Louis, Mo.) is added and plates are incubated for 2 hours. Media is then aspirated, and MTT dissolved in DMSO for 30 minutes, after which the absorbance is read at a wavelength of 570 nm. […] Data in Table 4 is shown as percent of colonies formed±standard deviation compared to untreated controls. Results are representative of three independent experiments in quintuplicate. Analysis of variance (ANOVA) is used to assess in vitro functions of vehicle treated versus vorinostat treated cells. P values can be two-tailed. Tests can be performed using GraphPad InStat version 3.0 software."}},
  "data": [
    {"smiles": "O=C(CCCCCCC(=O)Nc1ccccc1)NO", "note": "[SAHA, N-Hydroxy-N′-phenyloctanediamide]", "values": [
      {"measurement": "Mean Micromets", "setting": "[1]; Experiment 1 (500,000 cells), 100 mg/kg SAHA IP once daily 21 days, vehicle 205.5", "result": 140.4},
      {"measurement": "Mean Micromets", "setting": "[1]; Experiment 1 (500,000 cells), 150 mg/kg SAHA IP once daily 21 days (lowered from 200 mg/kg), vehicle 205.5", "result": 151.8},
      {"measurement": "Mean Large Mets", "setting": "[1]; Experiment 1, 100 mg/kg SAHA IP once daily 21 days, vehicle 6.8", "result": 2.9},
      {"measurement": "Mean Large Mets", "setting": "[1]; Experiment 1, 150 mg/kg SAHA IP once daily 21 days (lowered from 200 mg/kg), vehicle 6.8", "result": 3.5},
      {"measurement": "Mean Micromets", "setting": "[1]; Experiment 2 (100,000 cells), 100 mg/kg SAHA IP once daily 21 days, vehicle 72.5", "result": 78.3},
      {"measurement": "Mean Micromets", "setting": "[1]; Experiment 2 (100,000 cells), 150 mg/kg SAHA IP once daily 21 days, vehicle 72.5", "result": 66.6},
      {"measurement": "Mean Large Mets", "setting": "[1]; Experiment 2, 100 mg/kg SAHA IP once daily 21 days, vehicle 3.3", "result": 4.4},
      {"measurement": "Mean Large Mets", "setting": "[1]; Experiment 2, 150 mg/kg SAHA IP once daily 21 days, vehicle 3.3", "result": 1.5},
      {"measurement": "number of large (>50 micron^2) brain metastases, in words", "setting": "[1]; in vivo, mice, IP SAHA vs vehicle", "result": "reduces the number"},
      {"measurement": "Colonization Data, % Control", "setting": "231-BR cells; 231-BR cells, 72-hour incubation, SAHA 5 μM, depsipeptide 10 ng/mL, VPA 10 mM, TSA 100 ng/mL, ± standard deviation", "result": "47 ± 1.9", "unit": "% Control"},
      {"measurement": "IC50", "setting": "231-BR cells; Homo sapiens, read-out: IC50 (growth inhibition, absorbance at 570 nm)", "result": 12.6, "unit": "µM"}
    ]}
  ]
}
